Source: patent publication US20050176649A1, “Iap binding peptides and assays for identifying compounds that bind iap” (priority 2001, published 2005)
Non-standard residues stand in square brackets, D forms with d. Residues, ends and D or L forms follow the SMILES beside them. ξ: configuration not given here. NMeF = CN[C@@H](Cc1ccccc1)C(=O)O; NMeV = CN[C@H](C(=O)O)C(C)C; ξAbu = CCC(N)C(=O)O

Columns and labels:
[1] = biological target: T1, BIR3 domain of XIAP (recombinant XIAP-BIR3, residues 238-358) (Homo sapiens, UniProt P98170); experiment: Fluorescence-based competition assay of tetrapeptide libraries (Example 1); format: binding, mammalian
T1 construct: Recombinant XIAP-BIR3 (residues 238-358); GST (N, cleaved yes); made in house; host or cells: E. coli
Source text: Expression and Purification of BIR3. […] The soluble fraction of the GST-BIR3 in the E. coli lysate was purified over a glutathione sepharose column, and further purified by anion exchange chromatography (Mono-Q, Amersham Biosciences). The fusion protein was cleaved by thrombin, and the GST portion was removed by the glutathione sepharose column. The BIR3 protein was further purified over a gel filtration column (Superdex 30, Amersham Biosciences).
Fluorescence Experiments. Luminescence spectra were recorded using a Photon Technologies, Inc. fluorometer with a Xe arc lamp and a PMT detector. […] The buffer used in all of the fluorescence experiments was 50 mM potassium phosphate, 100 mM NaCl, 2 mM 1,4-dithio-DL-threitol (DTT), pH 7.
Assay of Tetrapeptide Libraries. The samples were prepared in a 96 well plate lined with glass tubes, to prevent adsorption of the dye to plastic. The plate was stored on ice in the dark between measurements. […] 390 μL of this stock solution were added to 50 wells of the 96 well plate. 50 μL of the test tetrapeptide solutions were added and mixed immediately prior to taking the emission spectra. The final solutions were 5 μM in both badan and BIR3, and approximately 20-30 μM in the tetrapeptide solutions. […] 50 μL of water was added to these wells, again as controls, to determine the intensity of the unbound dye.
The binding of various tetrapeptide mimics to the BIR3 domain of XIAP was determined using a fluorescence-based competition assay. The assay is based on an environment-sensitive fluorogenic dye molecule, badan. Badan is a dye whose sensitivity to environmental changes has previously been used to probe protein binding interactions. […] As the dye is displaced from the binding pocket by the test molecule, the emission shifts back towards the aquated spectrum.

[2] = biological target: T2, BIR3 domain of XIAP (Homo sapiens, UniProt P98170); experiment: Fluorescence displacement assay: AVPC-badan displaced from BIR3 by test tetrapeptide (typical assay, Tables 1 and 2); format: binding, mammalian; details: for Intensity (470 nm): emission intensity of AVPC-badan with BIR3 and test tetrapeptide, excitation 387 nm, lower = more dye displaced; for Fraction free: fraction of AVPC-badan free (displaced from BIR3), from intensity at 470 nm; for Krelative: relative equilibrium constant for displacement of AVP-dye, larger = greater affinity for BIR3; for K: binding (equilibrium) constant for displacement of AVP-dye, position-4 library, 5 μM dye and protein, larger = greater affinity
T2 construct: Recombinant XIAP-BIR3 (residues 238-358); GST (N, cleaved yes); made in house; host or cells: E. coli
Source text: The ability to quickly assay small molecules for their effectiveness in disrupting protein-protein interactions is critical to the development of viable drug candidates. One aspect of the present invention comprises an assay to test the binding affinity of a library of tetrapeptide molecules for the BIR3 domain of an inhibitor of apoptosis protein (LAP), particularly the mammalian XIAP. The assay is based on a detectable label, preferably a fluorogenic dye molecule. In preferred embodiments, the fluorophore is attached to a tripeptide, AVP, whose sequence matches the N-terminal three residues of Smac. The general structure of this molecule, therefore, is AVP[X], wherein X is the fluorophore. The molecule is referred to herein as an “AVP-dye”. The AVP-dye packs into the groove of the BIR3, causing a large shift in emission maximum and intensity when the environment of the dye changes from water to the hydrophobic pocket of the protein. If a molecule (e.g. the native Smac protein or a tetrapeptide mimic) displaces the dye, then emission will shift back to the spectrum observed in water. Since the emission intensity is related to the binding of the tetrapeptide, the intensity can be used to estimate the equilibrium constant, K, for displacement of the AVP-dye by the tetrapeptide. The larger the equilibrium constant, the greater affinity the tetrapeptide has for the BIR3.
The aforementioned AVP-dye is used in an assay of test compounds that may, like the Smac tetrapeptide AVPI, bind to the BIR3 domain of XIAP, thereby relieving XIAP-mediated suppression of apoptosis. This is a high-throughput, cell-free assay, that is assembled as follows. A protein comprising the BIR3 domain of an IAP is placed in an assay medium comprising a suitable buffer, as described above. Preferably, this is a recombinant protein comprising the BIR3 domain, but a full IAP protein also may be used. An aliquot of the AVP-dye is added to the reaction mixture, in the presence of the test compound. Controls comprise the BIR3 and the dye in the absence of the test compound and, optionally, BIR3 and the dye in the presence of the naturally occurring tetrapeptide, AVPI. […] Alternatively, a emission spectrum is measured at the selected excitation wavelength. In one type of measurement, the test compound is added and an emission spectrum is measured by scanning from, e.g., 460-480 nm. In another type of measurement, the emission intensity at a particular wavelength, e.g., 470 nm, is measured. […] Thus, the binding affinity of the test compound may be calculated as a function of its ability to displace the dye from the BIR3 domain, according to the following calculation: [formula]
Stock solution of badan, BIR3, and buffer were mixed: 2.5 ml of badan, 1.75 ml BIR3, and 15.25 ml of buffer were mixed in a glass vial which had been chilled to 4° C. Added 390 μL of the stock solution to 50 wells in the pre-chilled 96 well plate (wells A1-E2).
Stock solution of badan and buffer were mixed: 150 μL badan and 1020 μL of buffer were mixed in a small glass vial (also chilled) and added to 3 wells on the plate in 390 μL aliquots (F1-F3).
The 96 well plate was stored over ice in an insulated bucket while the emission spectra of the samples were taken. Fifty μL of the appropriate test solution (or water, for the control experiments) was added with a micropipet, the solution mixed with a Pasteur pipet before adding the sample to the fluorescence cuvette. While one sample was being scanned, the cuvette from the previous scan was washed with EtOH and then next sample was prepared.

T2 sequence (P98170 238-358): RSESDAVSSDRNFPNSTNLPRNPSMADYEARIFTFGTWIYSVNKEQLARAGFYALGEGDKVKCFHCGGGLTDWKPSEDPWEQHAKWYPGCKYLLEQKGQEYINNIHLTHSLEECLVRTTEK
T1 sequence (P98170 238-358): as above

SMILES | Kd [1] | also measured
CC(C)[C@@H](C(=O)N1CCC[C@H]1C(=O)N(C)[C@@H](Cc1ccccc1)C(N)=O)N(C)C(=O)[C@H](C)N [A(N-Me)VP(N-Me)F] (H-A[NMeV]P[NMeF]-NH2; N-terminus and C-terminus assumed) | 91 µM | 
CC[C@H](C)[C@H](NC(=O)[C@@H]1CCCN1C(=O)[C@H](C(C)C)N(C)C(=O)[C@H](C)N)C(N)=O [A(N-Me)VPI] | 257 µM | 
CC[C@H](C)[C@H](NC(=O)[C@@H]1CCCN1C(=O)[C@H](CCC(=O)O)NC(=O)[C@H](C)N)C(N)=O [AEPI] (H-AEPI-NH2; N-terminus and C-terminus assumed) | 2.7 µM | 
CC[C@H](C)[C@H](NC(=O)[C@@H]1CCCN1C(=O)[C@H](Cc1c[nH]cn1)NC(=O)[C@H](C)N)C(N)=O [AHPI] (H-AHPI-NH2; N-terminus and C-terminus assumed) | 0.33 µM | Intensity (470 nm) [2]: 41450; Fraction free [2]: 0.8543
CC[C@H](C)[C@H](NC(=O)[C@@H]1CCCN1C(=O)[C@@H](NC(=O)[C@H](C)N)[C@@H](C)CC)C(N)=O [AIPI] (H-AIPI-NH2; N-terminus and C-terminus assumed) |  | Intensity (470 nm) [2]: 44902; Fraction free [2]: 0.8375; Krelative [2]: 2.6613
CC[C@H](C)[C@H](NC(=O)[C@@H]1CCCN1C(=O)[C@H](CC(C)C)NC(=O)[C@H](C)N)C(N)=O [ALPI] (H-ALPI-NH2; N-terminus and C-terminus assumed) |  | Intensity (470 nm) [2]: 38650; Fraction free [2]: 0.8679; Krelative [2]: 3.5812
CC[C@H](C)[C@H](NC(=O)[C@@H]1CCCN1C(=O)[C@@H]1CCCN1C(=O)[C@H](C)N)C(N)=O [APPI] (H-APPI-NH2) | > 100 µM | 
CC[C@H](C)[C@@H](C(N)=O)N(C)C(=O)[C@@H]1CCCN1C(=O)[C@H](CCCNC(=N)N)NC(=O)[C@H](C)N [ARP(N-Me)I] | 190 µM | 
CC[C@H](C)[C@H](NC(=O)[C@@H]1CCCN1C(=O)[C@H](CCCNC(=N)N)NC(=O)[C@H](C)N)C(N)=O [ARPI] | 0.18 µM | Intensity (470 nm) [2]: 29455; Fraction free [2]: 0.9125
CC[C@H](C)[C@H](NC(=O)[C@@H]1CCCN1C(=O)[C@H](CO)NC(=O)[C@H](C)N)C(N)=O [ASPI] (H-ASPI-NH2; N-terminus and C-terminus assumed) | 1.4 µM | 
CC[C@H](C)[C@H](NC(=O)[C@@H]1CCCN1C(=O)[C@@H](NC(=O)[C@H](C)N)[C@@H](C)O)C(N)=O [ATPI] (H-ATPI-NH2; N-terminus and C-terminus assumed) | 1.2 µM | 
CC(C)[C@H](NC(=O)[C@H](C)N)C(=O)N1CCC[C@H]1C(=O)N(C)[C@@H](Cc1ccccc1)C(N)=O [AVP(N-Me)F] (H-AVP[NMeF]-NH2; N-terminus and C-terminus assumed) | 0.89 µM | 
CC(C)[C@H](NC(=O)[C@H](C)N)C(=O)N1CCC[C@H]1C(=O)N[C@@H](C)C(N)=O [AVPA] (H-AVPA-NH2; N-terminus and C-terminus assumed) | 14 µM | K [2]: 0.05518
CC(C)[C@H](NC(=O)[C@H](C)N)C(=O)N1CCC[C@H]1C(=O)N[C@@H](CS)C(N)=O [AVPC, Ala-Val-Pro-Cys-NH2] | 1.4 µM | K [2]: 0.1034
CC(C)[C@H](NC(=O)[C@H](C)N)C(=O)N1CCC[C@H]1C(=O)N[C@@H](CCC(=O)O)C(N)=O [AVPE] (H-AVPE-NH2; N-terminus and C-terminus assumed) | 93 µM | K [2]: 0.03709
CC(C)[C@H](NC(=O)[C@H](C)N)C(=O)N1CCC[C@H]1C(=O)N[C@@H](CC(N)=O)C(N)=O [AVPN] (H-AVPN-NH2) | > 100 µM | 
CC(C)[C@H](NC(=O)[C@H](C)N)C(=O)N1CCC[C@H]1C(=O)N[C@@H](CCC(N)=O)C(N)=O [AVPQ] (H-AVPQ-NH2) | > 100 µM | 
CC[C@H](C)[C@H](NC(=O)[C@@H]1CCCN1C(=O)[C@H](Cc1c[nH]c2ccccc12)NC(=O)[C@H](C)N)C(N)=O [AWPI] (H-AWPI-NH2; N-terminus and C-terminus assumed) | 0.99 µM | 
CCC(N)C(=O)N[C@H](C(=O)N1CCC[C@H]1C(=O)N[C@H](C(N)=O)[C@@H](C)CC)C(C)C (stereo partly shown) [AbuVPI] (H-[ξAbu]VPI-NH2; N-terminus and C-terminus assumed) |  | Intensity (470 nm) [2]: 34770; Fraction free [2]: 0.8867
CC[C@H](C)[C@H](NC(=O)[C@@H]1CCCN1C(=O)[C@@H](NC(=O)[C@@H](N)CO)C(C)C)C(N)=O [SVPI] | 27 µM | 

Further lines, with some results ahead:

Kd [1] | SMILES | also measured
83 µM | CC(C)[C@@H](C(=O)N1CCC[C@H]1C(=O)N[C@@H](Cc1ccccc1)C(N)=O)N(C)C(=O)[C@H](C)N [A(N-Me)VPF] | 
2.8 µM | CC[C@H](C)[C@H](NC(=O)[C@@H]1CCCN1C(=O)[C@H](C)NC(=O)[C@H](C)N)C(N)=O [AAPI] (H-AAPI-NH2; N-terminus and C-terminus assumed) | 
17 µM | CC[C@H](C)[C@H](NC(=O)[C@@H]1CCCN1C(=O)[C@H](CC(=O)O)NC(=O)[C@H](C)N)C(N)=O [ADPI] (H-ADPI-NH2; N-terminus and C-terminus assumed) | 
46 µM | CC[C@H](C)[C@H](NC(=O)[C@@H]1CCCN1C(=O)CNC(=O)[C@H](C)N)C(N)=O [AGPI] (H-AGPI-NH2; N-terminus and C-terminus assumed) | 
1.5 µM | CC[C@H](C)[C@H](NC(=O)[C@@H]1CCCN1C(=O)[C@H](CC(N)=O)NC(=O)[C@H](C)N)C(N)=O [ANPI] (H-ANPI-NH2; N-terminus and C-terminus assumed) | 
0.71 µM | C[C@H](N)C(=O)N[C@@H](CCCNC(=N)N)C(=O)N1CCC[C@H]1C(=O)N(C)[C@@H](Cc1ccccc1)C(N)=O [ARP(N-Me)F] (H-ARP[NMeF]-NH2; N-terminus and C-terminus assumed) | 
0.56 µM | CC(C)[C@H](NC(=O)[C@H](C)N)C(=O)N[C@@H](C)C(=O)N[C@@H](Cc1ccccc1)C(N)=O [AVAF] | 
174 µM | CC[C@H](C)[C@@H](C(N)=O)N(C)C(=O)[C@@H]1CCCN1C(=O)[C@@H](NC(=O)[C@H](C)N)C(C)C [AVP(N-Me)I] | 
7.3 µM | CC(C)[C@H](NC(=O)[C@H](C)N)C(=O)N1CCC[C@H]1C(=O)N[C@@H](CC(=O)O)C(N)=O [AVPD] (H-AVPD-NH2; N-terminus and C-terminus assumed) | K [2]: 0.1799
9 µM | CC[C@H](C)[C@H](NC(=O)[C@@H]1CCCN1C(=O)[C@@H](NC(=O)CN)C(C)C)C(N)=O [GVPI] (H-GVPI-NH2; N-terminus and C-terminus assumed) | 
